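Compound exposure: 48 hours, 5 concentrations, 96-well plates. GI50: concentration for 50% inhibition of growth. TGI marks complete inhibition of growth.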
Assays:
Test in all cases: DTP human tumour cell line panel, 48 h
SK-MEL-2 melanoma = tested on: SK-MEL-2 melanoma
A549 NSCLC = tested on: A549 NSCLC
KM12 colon = tested on: KM12 colon
SW-620 colon = tested on: SW-620 colon
NCI-H460 lung = tested on: NCI-H460 lung
SK-OV-3 ovarian = tested on: SK-OV-3 ovarian
NCI/ADR-RES ovarian = tested on: NCI/ADR-RES ovarian
RPMI-8226 leukemia = tested on: RPMI-8226 leukemia
MDA-MB-231 breast = tested on: MDA-MB-231 breast
NCI-H226 lung = tested on: NCI-H226 lung
SK-MEL-5 melanoma = tested on: SK-MEL-5 melanoma
SF-268 CNS = tested on: SF-268 CNS
HL-60(TB) leukemia = tested on: HL-60(TB) leukemia
SN12C renal = tested on: SN12C renal
K-562 leukemia = tested on: K-562 leukemia
SF-539 CNS = tested on: SF-539 CNS
NCI-H23 lung = tested on: NCI-H23 lung
A498 renal = tested on: A498 renal
CCRF-CEM leukemia = tested on: CCRF-CEM leukemia
PC-3 prostate = tested on: PC-3 prostate
HCC-2998 colon = tested on: HCC-2998 colon
T-47D breast = tested on: T-47D breast
HT29 colon = tested on: HT29 colon
HCT-15 colon = tested on: HCT-15 colon
OVCAR-5 ovarian = tested on: OVCAR-5 ovarian
UACC-257 melanoma = tested on: UACC-257 melanoma
SR leukemia = tested on: SR leukemia
U251 CNS = tested on: U251 CNS
DU-145 prostate = tested on: DU-145 prostate
UO-31 renal = tested on: UO-31 renal
ACHN renal = tested on: ACHN renal
SK-MEL-28 melanoma = tested on: SK-MEL-28 melanoma
NCI-H522 lung = tested on: NCI-H522 lung
EKVX NSCLC = tested on: EKVX NSCLC
HOP-62 NSCLC = tested on: HOP-62 NSCLC
786-0 renal = tested on: 786-0 renal
SNB-75 CNS = tested on: SNB-75 CNS
TK-10 renal = tested on: TK-10 renal
MALME-3M melanoma = tested on: MALME-3M melanoma
IGROV1 ovarian = tested on: IGROV1 ovarian
MOLT-4 leukemia = tested on: MOLT-4 leukemia
UACC-62 melanoma = tested on: UACC-62 melanoma
BT-549 breast = tested on: BT-549 breast
OVCAR-8 ovarian = tested on: OVCAR-8 ovarian

Work on `Nc1cc(N)c2nc(-c3ccccc3)c(NCCc3ccc(Cl)c(Cl)c3)nc2c1` yielded a GI50 (SK-MEL-2 melanoma) of 10.3 µM, a TGI (SK-MEL-2 melanoma) of 22.4 µM and a GI50 (A549 NSCLC) of 12.6 µM. For the same molecule, the TGI (A549 NSCLC) was 33.1 µM, the GI50 (KM12 colon) was 2.63 µM and the TGI (KM12 colon) was 10.5 µM. For the same molecule, the GI50 (SW-620 colon) was 1.64 µM, the TGI (SW-620 colon) was 2.99 µM and the GI50 (NCI-H460 lung) was 3.21 µM. It also gave a TGI (NCI-H460 lung) of 14.1 µM, a GI50 (SK-OV-3 ovarian) of 12.3 µM and a TGI (SK-OV-3 ovarian) of 24.7 µM. The GI50 (NCI/ADR-RES ovarian) was 3.62 µM, the TGI (NCI/ADR-RES ovarian) was 18.8 µM and the GI50 (RPMI-8226 leukemia) was 0.924 µM. For the same molecule, the TGI (RPMI-8226 leukemia) was 2.91 µM, the GI50 (MDA-MB-231 breast) was 1.3 µM and the TGI (MDA-MB-231 breast) was 3.89 µM. The GI50 (NCI-H226 lung) was 16.5 µM, the TGI (NCI-H226 lung) was 33.3 µM and the GI50 (SK-MEL-5 melanoma) was 2.32 µM. The TGI (SK-MEL-5 melanoma) was 7.52 µM, the GI50 (SF-268 CNS) was 2.85 µM and the TGI (SF-268 CNS) was 12.9 µM. The GI50 (HL-60(TB) leukemia) was 2.07 µM, the TGI (HL-60(TB) leukemia) was 5.27 µM and the GI50 (SN12C renal) was 1.75 µM. It also gave a TGI (SN12C renal) of 3.37 µM, a GI50 (K-562 leukemia) of 1.87 µM and a TGI (K-562 leukemia) of 5.29 µM. It also gave a GI50 (SF-539 CNS) of 2.22 µM, a TGI (SF-539 CNS) of 10.9 µM and a GI50 (NCI-H23 lung) of 2.81 µM. The TGI (NCI-H23 lung) was 13.3 µM, the GI50 (A498 renal) was 11.3 µM and the TGI (A498 renal) was 23.4 µM. The GI50 (CCRF-CEM leukemia) was 2.77 µM, the TGI (CCRF-CEM leukemia) was 12.3 µM and the GI50 (PC-3 prostate) was 1.01 µM. It also gave a TGI (PC-3 prostate) of 4.29 µM, a GI50 (HCC-2998 colon) of 5.78 µM and a TGI (HCC-2998 colon) of 19.7 µM. It also gave a GI50 (T-47D breast) of 1.8 µM, a TGI (T-47D breast) of 5.94 µM and a GI50 (HT29 colon) of 3.4 µM. The TGI (HT29 colon) was 13.2 µM, the GI50 (HCT-15 colon) was 4.64 µM and the TGI (HCT-15 colon) was 20 µM. It also gave a GI50 (OVCAR-5 ovarian) of 1.81 µM, a TGI (OVCAR-5 ovarian) of 4.75 µM and a GI50 (UACC-257 melanoma) of 2.06 µM. The TGI (UACC-257 melanoma) was 4.52 µM, the GI50 (SR leukemia) was 1.66 µM and the TGI (SR leukemia) was 7.61 µM. For the same molecule, the GI50 (U251 CNS) was 2.03 µM, the TGI (U251 CNS) was 5.32 µM and the GI50 (DU-145 prostate) was 1.63 µM. The TGI (DU-145 prostate) was 3.63 µM, the GI50 (UO-31 renal) was 1.93 µM and the TGI (UO-31 renal) was 3.97 µM. It also gave a GI50 (ACHN renal) of 3.31 µM, a TGI (ACHN renal) of 12.4 µM and a GI50 (SK-MEL-28 melanoma) of 2.13 µM. The TGI (SK-MEL-28 melanoma) was 5.88 µM, the GI50 (NCI-H522 lung) was 2.11 µM and the TGI (NCI-H522 lung) was 4.98 µM. It also gave a GI50 (EKVX NSCLC) of 3.16 µM, a TGI (EKVX NSCLC) of 16.2 µM and a GI50 (HOP-62 NSCLC) of 3.92 µM. For the same molecule, the TGI (HOP-62 NSCLC) was 39.8 µM, the GI50 (786-0 renal) was 3.13 µM and the TGI (786-0 renal) was 21.1 µM. The GI50 (SNB-75 CNS) was 6.18 µM, the TGI (SNB-75 CNS) was 33.4 µM and the GI50 (TK-10 renal) was 4.78 µM. It also gave a TGI (TK-10 renal) of 17.5 µM, a GI50 (MALME-3M melanoma) of 1.85 µM and a TGI (MALME-3M melanoma) of 4.5 µM. The GI50 (IGROV1 ovarian) was 3.38 µM, the TGI (IGROV1 ovarian) was 15.9 µM and the GI50 (MOLT-4 leukemia) was 1.14 µM. It also gave a TGI (MOLT-4 leukemia) of 9.32 µM, a GI50 (UACC-62 melanoma) of 2.5 µM and a TGI (UACC-62 melanoma) of 7.97 µM. For the same molecule, the GI50 (BT-549 breast) was 1.56 µM, the TGI (BT-549 breast) was 13.8 µM and the GI50 (OVCAR-8 ovarian) was 2.41 µM. It also gave a TGI (OVCAR-8 ovarian) of 6.02 µM.
